Results: patent publication US20240156965A1, “DICHALCOGENIDE PRODRUGS” (Ludwig-Maximilians-Universitat Munchen, priority 2021, published 2024)
“Also recorded” adds a separate entry of the source.

Columns and labels:
[1] = target: T1, TrxR1 (Homo sapiens, UniProt Q16881); test: Cellular quantitative HTS for TrxR1 inhibitors using P6 (LOPAC1280); format: cell-based; conditions: for activity / hit status in cellular P6 screen: hits classed up to 20 μM; for pIC50 comparison between BAY 11-7085 and BAY 11-7082: despite ca. 1.1 Log P difference
T1 construct: endogenous in cells
T1 sequence (Q16881 151-649 limits assumed): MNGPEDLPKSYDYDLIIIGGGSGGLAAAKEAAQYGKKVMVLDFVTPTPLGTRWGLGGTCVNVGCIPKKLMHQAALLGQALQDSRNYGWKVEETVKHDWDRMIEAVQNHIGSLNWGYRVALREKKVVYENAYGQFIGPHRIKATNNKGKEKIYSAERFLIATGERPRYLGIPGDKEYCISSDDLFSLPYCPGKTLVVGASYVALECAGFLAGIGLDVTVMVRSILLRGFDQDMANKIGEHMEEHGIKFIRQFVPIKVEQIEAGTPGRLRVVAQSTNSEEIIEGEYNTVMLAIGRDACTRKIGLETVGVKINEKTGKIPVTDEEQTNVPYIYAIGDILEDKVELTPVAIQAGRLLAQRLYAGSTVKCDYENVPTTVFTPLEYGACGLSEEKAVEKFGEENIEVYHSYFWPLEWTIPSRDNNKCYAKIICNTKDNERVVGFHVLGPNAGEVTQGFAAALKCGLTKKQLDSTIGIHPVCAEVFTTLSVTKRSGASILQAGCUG
From the text: The stability and constant environment of P6's signal (crystallising fluorophore, protected from interferences), its low background (ESIPT quenched probe) and low crosstalk (high Stokes shift), and its ability to directly generate a readout, were promising features. We therefore set out to develop the first cellular quantitative HTS (qHTS) assay for TrxR1 inhibitors, using P6, and performing pilot screening with the 1280-compound LOPAC1280 library. LOPAC is intended to cover drugs and drug-like scaffolds with much comparative data on target selectivity, potency, cellular and in vivo bioactivity, without focus on any particular mechanism of action. The LOPAC library was used in the only previously reported qHTS enzymatic TrxR assay (in 2011), and there is 82% overlap in composition between the 2011 and 2021 version (Prast-Nielsen, S. et al., Free Radical Biology and Medicine 50, 1114-1123 (2011)).
Cellular screening using P6, optimized for HTS with 1536-well plates (assay volume 6 μL, 500 cells/well) over 4 h run-time, reproduced the strong performance seen in 96-well format. Untreated vs no-cell controls gave a 7-fold raw signal to background ratio [S:B] without background compensation, with a high Z′ value of 0.64, suitable for HTS (FIG. 5a). P6 signal was linear over the assay time, and linearly reflected turnover rate (varied P6 concentration or cell count; FIG. 5b). Pre-incubating cells for 1 h with reference inhibitors prior to P6 gave concentration-dependent inhibition consistent with reported values (FIG. 5c).
A LOPAC1280 screen using this assay protocol performed well (Z′=0.63, S:B 7:1). Compounds with apparent toxicity within the assay time were excluded by a separate viability counter-assay. Moderate cut-off criteria (IC50<20 μM and curve form) gave a <1.5% hit rate (18 of 1278 compounds, plus TRi-1 and TRi-2; FIG. 5d). […] Matching expectations, with the exception of auranofin, none of these species approached the potency of TRi-1 (Stafford, W. C. et al., Sci. Transl. Med. 10, eaaf7444 (2018)).

[2] = tested on: TrxR; conditions: cell-free; cited from earlier work
[3] = target: T2, TrxR (Rattus norvegicus, UniProt O89049); conditions: cited from earlier work
T2 sequence (O89049 1-499): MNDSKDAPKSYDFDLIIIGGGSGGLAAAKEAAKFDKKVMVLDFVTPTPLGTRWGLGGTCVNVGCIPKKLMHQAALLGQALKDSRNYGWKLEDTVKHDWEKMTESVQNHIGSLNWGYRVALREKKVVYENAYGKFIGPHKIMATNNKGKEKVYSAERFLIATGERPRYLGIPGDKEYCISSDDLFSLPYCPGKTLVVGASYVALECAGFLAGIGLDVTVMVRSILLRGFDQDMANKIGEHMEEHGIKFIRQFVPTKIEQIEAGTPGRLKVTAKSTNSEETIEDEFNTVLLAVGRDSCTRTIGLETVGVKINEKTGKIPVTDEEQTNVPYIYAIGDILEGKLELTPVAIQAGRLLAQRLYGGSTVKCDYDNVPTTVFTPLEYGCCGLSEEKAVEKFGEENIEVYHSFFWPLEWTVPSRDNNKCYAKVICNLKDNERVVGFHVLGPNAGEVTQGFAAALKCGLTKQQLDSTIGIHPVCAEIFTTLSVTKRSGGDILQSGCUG

[4] = Challenge with monothiol reductant GSH, cell-free fluorogenic cargo release; format: physicochemical; conditions: 10 μM probe; for sensitivity to GSH in GSH titration, signal F/F^TCEP: 3 h timepoint, GSH up to 10 mM; for resistance to GSH-triggered release of fluorescent cargo PQ-OH (timecourse): supraphysiological GSH 10 mM, TE buffer pH 7.4, 37 °C; for cargo release when challenged with GSH / GSH system reductants: relevant cellular levels
From the text: (§1) This cell-free assay examined the stability of dichalcogenide-based reduction-triggered compounds of the invention when exposed to cellular monothiol reductant GSH, and its cellular partner reductants glutathione reductase (GR) and glutaredoxins (Grx1 and Grx2).
(§2) Assay Conditions: A black 96-well plate with black bottom was charged with solutions of fluorophore-releasing reduction-triggered probes that are compounds of the invention (P1, P2, P3, P6 and P7) or that are not compounds of the invention and reveal the performance of prior art systems (disulfide X26), reaching 100 μL final volume, 1% final DMSO, 10 μM probe, aq. TE buffer (pH 7.4), with the indicated concentrations of reductant (in FIG. 1a) or concentration ratios of reductant to probe (in FIG. 1b-d). TCEP (100 μM) was used as a quantitative reference reductant; and in the GR/GSH/Grx assays (FIG. 1c-d), GR was used at 20 nM, GSH at 100 μM, to maintain Grx in a reduced state suitable for challenging the probes without supplying a high concentration of either GSH or GR. Reaction mixtures were incubated at 37° C. for up to 6 h while measuring fluorescence intensity F over time, using a BMG Labtech FLUOstar Omega platereader (λexc=355 nm, λem=530 nm).
(§3) Data Representation: F^TCEP is the maximum possible fluorescence increase, corresponding to complete reduction-triggered cargo release by the TCEP incubation. F/F^TCEP thus gives the fluorescence intensity, as a fraction of the maximum possible fluorescence signal, at the indicated times.

[5] = tested on: glutaredoxins (Grx1 and Grx2) with GR and GSH; test: Challenge with GR/GSH/Grx system reductants, cell-free; format: biochemical; conditions: 10 μM probe, GR 20 nM, GSH 100 μM, Grx1 or Grx2 up to physiological concentrations
From the text: as §1, §2, §3

[6] = target: T3, human recombinant thioredoxin reductase 1 (TrxR1) (Homo sapiens, UniProt Q16881); test: Enzymatic activation assay with TrxR1, cell-free; format: biochemical; conditions: 10 μM probe, 20 nM TrxR1, 100 μM NADPH, 37 °C
T3 sequence (Q16881 1-499 isoform Q16881-5): T1 sequence (Q16881 151-649 limits assumed)
Experimental: This cell-free assay (see FIG. 2) examined the processing of dichalcogenide-based fluorophore-releasing reduction-triggered probes that are compounds of the invention, by components of the cellular thioredoxin system.
Assay conditions and data representation: A black 96-well plate with black bottom was charged with solutions of probes (P1, P2, P3, P6, P7) to reach final reaction conditions: 100 μL of aq. TE buffer (pH 7.4), 10 μM probe concentration, 1 vol % DMSO, and 20 nM of human recombinant thioredoxin reductase 1 (TrxR1; in FIG. 1a), or 20 nM of either TrxR1 or thioredoxin reductase Sec498Cys mutant (TrxR1 U498C or “mut”; in FIG. 1b), or the indicated probe-to-reductant concentration ratios of TrxR1 (in FIG. 1c) or human recombinant thioredoxin 1 (Trx1; in FIG. 1d); with the final step being the addition of NADPH (100 μM final). The reaction mixtures were incubated at 37° C. for 3 to 6 h as shown with timecourse measurements of fluorescence as for FIG. 1. Data representation as for FIG. 1.

[7] = tested on: HeLa cervical cancer cell line; test: Cellular reduction assay in HeLa cells (fluorescence timecourse); format: cell-based, human; conditions: time- and dose-dependence
Experimental: Assay Conditions: Cells were cultured under standard conditions (Gao, L. et al. Cell Chemical Biology 2021, 28, 1-14. https://doi.org/10.1016/j.chembiol.2020.11.007), left to adhere for 24 h, then compounds were added to 100 μM with 1% vol DMSO. Fluorescence timecourse measurements were acquired as in the chemoreductant assay, with all conditions in triplicates.
Data Representation: F.I.(t) is the fluorescence intensity signal increase as compared to time zero signal (fluorescence intensity immediately following compound addition, before probe activation could occur), in arbitrary units although with the same detection settings for all probes releasing the same cargo. This corresponds to reduction-triggered cargo release.

NC1(C(=O)O)CCc2cc(C(=O)O)ccc21 (stereo not drawn) [AIDA]
activity / hit status in cellular P6 screen [1]: non-obvious hit

Cc1ccc(S(=O)(=O)/C=C/C#N)cc1 [BAY 11-7082]
pIC50 comparison between BAY 11-7085 and BAY 11-7082 [1]: no change

CC(C)(C)c1ccc(S(=O)(=O)/C=C/C#N)cc1 [BAY 11-7085]
pIC50 comparison between BAY 11-7085 and BAY 11-7082 [1]: no change

CN(N=O)c1cc(O)ccc1O [Dephostatin]
ratio of cell-free to cellular potency (potency loss in cells) ([1]; shared hits of cellular and cell-free qHTS): > 10 fold

OC1C[Se][Se]CC1O (stereo not drawn) [E3]
reduction by TrxR in vitro [2]: processed by TrxR

NC1CC[Se][Se]C1 (stereo not drawn) [E4]
reduction by TrxR in vitro [2]: resistant to TrxR

Oc1ccc2ccccc2c1SSc1c(O)ccc2ccccc12 [IPA-3]
activity / hit status in cellular P6 screen [1]: active in the cellular screen
activity in enzymatic (cell-free) TrxR screen [3]: inactivity in the enzymatic assay

CN(C(=O)Oc1ccc(Cl)cc1-c1nc2ccc(Cl)cc2c(=O)[nH]1)C1CCS[Se]C1 (stereo not drawn) [P1]
sensitivity to GSH in GSH titration, signal F/F^TCEP [4]: completely insensitive
resistance to GSH-triggered release of fluorescent cargo PQ-OH (timecourse) [4]: entirely
cargo release when challenged with GSH / GSH system reductants [4]: totally resisted releasing cargo

CN(C(=O)Oc1ccc(Cl)cc1-c1nc2ccc(Cl)cc2c(=O)[nH]1)C1CC[Se]SC1 (stereo not drawn) [P2]
sensitivity to GSH in GSH titration, signal F/F^TCEP [4]: very low sensitivity
resistance to GSH-triggered release of fluorescent cargo PQ-OH (timecourse) [4]: majorly
cargo release when challenged with GSH / GSH system reductants [4]: high resistance to GSH challenge
triggering by GR/GSH/Grx systems [5]: total resistance to Grx challenge

CN(C(=O)Oc1ccc(Cl)cc1-c1nc2ccc(Cl)cc2c(=O)[nH]1)C1CC[Se][Se]C1 (stereo not drawn) [P3]
sensitivity to GSH in GSH titration, signal F/F^TCEP [4]: completely insensitive
resistance to GSH-triggered release of fluorescent cargo PQ-OH (timecourse) [4]: entirely
cargo release when challenged with GSH / GSH system reductants [4]: totally resisted releasing cargo
cargo release on exposure to TrxR1 (timecourse) [6]: stable to this challenge; also recorded: nonresponsive to TrxR

CN1CCN(C(=O)CCN(C(=O)Oc2ccc(Cl)cc2-c2nc3ccc(Cl)cc3c(=O)[nH]2)C2CCCCC2)CC1 [X28, reference compound]
fluorescence signal generation F.I.(t) in HeLa cells [7]: does not generate signal; also recorded: did not generate signal

OC[C@H]1O[C@H]([S-])[C@H](O)[C@@H](O)[C@@H]1O.[Au+] [aurothioglucose]
pIC50/potency lower than auranofin ([1]; relative to ester prodrug auranofin): 10 fold

C=CCN1CCc2c(cc(O)c(O)c2Cl)C(c2ccccc2)C1 (stereo not drawn) [chloro-APB]
activity / hit status in cellular P6 screen [1]: active in the cellular screen
activity in enzymatic (cell-free) TrxR screen [3]: inactivity in the enzymatic assay

COC[C@H]1OC(=O)c2coc3c2[C@@]1(C)C1=C(C3=O)[C@@H]2CCC(=O)[C@@]2(C)C[C@H]1OC(C)=O [wortmannin]
activity in enzymatic (cell-free) TrxR screen [3]: activity in the enzymatic screen
